Oligonucleotides are written 5' to 3', each unit as a sugar letter and its base; * is a phosphorothioate linkage, no mark a phosphodiester; rarer units and linkages stand in square brackets, end groups in braces. Plain capitals give the bases only. l = locked nucleic acid (LNA); k = constrained ethyl (cEt); [5mC] = 5-methylcytosine; d = 2'-deoxy (DNA)
Assays:
AR mRNA [1] = experiment: Antisense inhibition of human AR in HuVEC cells, single concentration (electroporation, qRT-PCR RTS3559); format: cell-based; details: 500 nM ASO, electroporation, ~24 h, Table 2
Outline: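 AR mRNA levels were measured with human primer-probe set RTS3559 and adjusted for total RNA (RIBOGREEN). Cells were HuVEC, with each antisense oligonucleotide delivered by electroporation at one concentration.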

AR mRNA [2] = experiment: Dose-dependent antisense inhibition of human AR in HuVEC cells (electroporation, qRT-PCR RTS3559, IC50); format: cell-based; details: HuVEC, ~16 h, Table 4
Outline: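 HuVEC cells dosed with antisense oligonucleotides by electroporation and treated approximately 16 hours. AR mRNA quantified by real-time qPCR with primer probe set RTS3559 and normalised to total RNA by RIBOGREEN; IC50 from dose-response.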

total AR mRNA = experiment: Total (full-length) AR mRNA in C4-2B MR cells, free uptake; format: cell-based, human; details: free uptake, 24 hrs
Description: Cells were plated at a density of 40,000 cells per well in 96-well plates and cultured in RPMI1640 medium with 10% fetal bovine serum. […] ISIS 549372, ISIS 549458, ISIS 549434, and ISIS 554221 were each added at 0.04 μM, 0.20 μM, 1.00 μM, and 5.00 μM concentrations of antisense oligonucleotide to culture media for free uptake by the cells. […] After a treatment period of 24 hrs, total AR mRNA levels were measured by quantitative real-time PCR using primer probe set RTS3559.

KLK3 mRNA = KLK3 mRNA (AR target gene) in C4-2B MR cells; format: cell-based, human
KLK2 mRNA = KLK2 mRNA (AR target gene) in C4-2B MR cells; format: cell-based, human
C4-2B MR cells = experiment: Proliferation of MDV3100-resistant C4-2B cells (CellTiter 96); format: cell-based, human; details: 6 days
Description: ISIS 549372, ISIS 549434, ISIS 549458, and ISIS 554221 were each added to the culture media at 0.04 μM, 0.20 μM, 1.00 μM, and 5.00 μM concentration of antisense oligonucleotide. ISIS 347526 was included as a negative control. After a treatment period of 6 days, the proliferative capacity of the cancer cells was measured with using CellTiter 96® AQueous One Solution Cell Proliferation kit (Promega), following the manufacturer's instructions. Results are presented in Table 41 as percent inhibition of proliferation, relative to non-treated cells.

AR mRNA [3] = experiment: AR mRNA levels in LMR20 cells (with/without DHT or R1881); format: cell-based, human; details: LMR20 cells; for AR mRNA levels (% baseline value) after treatment with DHT: DHT 10 nM 72 hrs; for AR mRNA levels (% baseline value) after treatment with R1881: R1881 10 nM 72 hrs; for AR mRNA levels (% baseline value) of cells without AR agonist treatment: no AR agonist
Description: (§1) LMR20 cells were plated at 1,500 cells per well in phenol red-free medium with CSS.

[4] = test system: prostate-specific antigen (PSA) mRNA; experiment: PSA mRNA levels in LMR20 cells; format: cell-based, human; details: LMR20 cells; for PSA mRNA levels (% baseline value) after treatment with DHT: DHT 10 nM 72 hrs; for PSA mRNA levels (% baseline value) after treatment with R1881: R1881 10 nM 72 hrs; for PSA mRNA levels (% baseline value) of cells without AR agonist treatment: no AR agonist
Description: LMR20 cells were plated at 1,500 cells per well in phenol red-free medium with CSS. […] Results are presented in Tables 43-45 as mRNA levels expressed as a percentage of the baseline values. mRNA levels may be lowered or increased after treatment.

TMPRSS2 mRNA = TMPRSS2 mRNA levels in LMR20 cells; format: cell-based, human; details: LMR20 cells; for TMPRSS2 mRNA levels (% baseline value) after treatment with DHT: DHT 10 nM 72 hrs; for TMPRSS2 mRNA levels (% baseline value) after treatment with R1881: R1881 10 nM 72 hrs; for TMPRSS2 mRNA levels (% baseline value) of cells without AR agonist treatment: no AR agonist
Description: as §1

AR mRNA [5] = experiment: AR mRNA in LnCaP cells by free uptake (hAR_LTS00943); format: cell-based, human; details: 24 hrs
Description: Cells were plated at a concentration of 4,000 cells/well in 96-well plates. ISIS oligonucleotides, specified in Table 68, were added individually at 0.02 μM, 0.10 μM, 0.50 μM, 2.50 μM, or 10.00 μM. After an incubation period of 24 hrs, mRNA levels were measured using primer probe set hAR_LTS00943.

## 549434 (k[5mC]*kT*kA*dA*dA*d[5mC]*dT*dT*d[5mC]*d[5mC]*d[5mC]*dG*dT*kG*kG*k[5mC]) [compound 549434]
AR mRNA [1]
  % inhibition: 96%
AR mRNA [2]; 55.6 nM
  percent inhibition of AR: 38%
AR mRNA [2]; 166.7 nM
  percent inhibition of AR: 60%
AR mRNA [2]; 500.0 nM
  percent inhibition of AR: 86%
AR mRNA [2]; 1500.0 nM
  percent inhibition of AR: 96%
AR mRNA [2]
  IC50: 85 nM
Total AR mRNA; 0.04 μM
  Percent inhibition of full-length AR mRNA in C4-2B MR cells: 9%
Total AR mRNA; 0.20 μM
  Percent inhibition of full-length AR mRNA in C4-2B MR cells: 36%
Total AR mRNA; 1.00 μM
  Percent inhibition of full-length AR mRNA in C4-2B MR cells: 66%
Total AR mRNA; 5.00 μM
  Percent inhibition of full-length AR mRNA in C4-2B MR cells: 88%
KLK3 mRNA; 0.04 μM
  Percent inhibition of KLK3 mRNA in C4-2B MR cells: 10%
KLK3 mRNA; 0.20 μM
  Percent inhibition of KLK3 mRNA in C4-2B MR cells: 47%
KLK3 mRNA; 1.00 μM
  Percent inhibition of KLK3 mRNA in C4-2B MR cells: 42%
KLK3 mRNA; 5.00 μM
  Percent inhibition of KLK3 mRNA in C4-2B MR cells: 64%
KLK2 mRNA; 0.04 μM
  Percent inhibition of KLK2 mRNA in C4-2B MR cells: 5%
KLK2 mRNA; 0.20 μM
  Percent inhibition of KLK2 mRNA in C4-2B MR cells: 27%
KLK2 mRNA; 1.00 μM
  Percent inhibition of KLK2 mRNA in C4-2B MR cells: 49%
KLK2 mRNA; 5.00 μM
  Percent inhibition of KLK2 mRNA in C4-2B MR cells: 68%
C4-2B MR cells; 0.04 μM
  Percent inhibition of C4-2B MR cell proliferation: 0%
C4-2B MR cells; 0.20 μM
  Percent inhibition of C4-2B MR cell proliferation: 0%
C4-2B MR cells; 1.00 μM
  Percent inhibition of C4-2B MR cell proliferation: 21%
C4-2B MR cells; 5.00 μM
  Percent inhibition of C4-2B MR cell proliferation: 22%

## 554221 (ACCAAGTTTCTTCAGC; sugars from the 5' end l3 d10 l3, all phosphorothioate, methylation of C not given here) [compound 554221]
Total AR mRNA; 0.04 μM
  Percent inhibition of full-length AR mRNA in C4-2B MR cells: 0%
Total AR mRNA; 0.20 μM
  Percent inhibition of full-length AR mRNA in C4-2B MR cells: 0%
Total AR mRNA; 1.00 μM
  Percent inhibition of full-length AR mRNA in C4-2B MR cells: 0%
Total AR mRNA; 5.00 μM
  Percent inhibition of full-length AR mRNA in C4-2B MR cells: 23%
KLK3 mRNA; 0.04 μM
  Percent inhibition of KLK3 mRNA in C4-2B MR cells: 0%
KLK3 mRNA; 0.20 μM
  Percent inhibition of KLK3 mRNA in C4-2B MR cells: 0%
KLK3 mRNA; 1.00 μM
  Percent inhibition of KLK3 mRNA in C4-2B MR cells: 47%
KLK3 mRNA; 5.00 μM
  Percent inhibition of KLK3 mRNA in C4-2B MR cells: 56%
KLK2 mRNA; 0.04 μM
  Percent inhibition of KLK2 mRNA in C4-2B MR cells: 24%
KLK2 mRNA; 0.20 μM
  Percent inhibition of KLK2 mRNA in C4-2B MR cells: 25%
KLK2 mRNA; 1.00 μM
  Percent inhibition of KLK2 mRNA in C4-2B MR cells: 56%
KLK2 mRNA; 5.00 μM
  Percent inhibition of KLK2 mRNA in C4-2B MR cells: 66%
C4-2B MR cells; 0.04 μM
  Percent inhibition of C4-2B MR cell proliferation: 11%
C4-2B MR cells; 0.20 μM
  Percent inhibition of C4-2B MR cell proliferation: 12%
C4-2B MR cells; 1.00 μM
  Percent inhibition of C4-2B MR cell proliferation: 0%
C4-2B MR cells; 5.00 μM
  Percent inhibition of C4-2B MR cell proliferation: 24%
AR mRNA [3]; ASO 0.04 μM
  AR mRNA levels (% baseline value) after treatment with DHT: 137 % baseline value
  AR mRNA levels (% baseline value) after treatment with R1881: 131 % baseline value
  AR mRNA levels (% baseline value) of cells without AR agonist treatment: 124 % baseline value
AR mRNA [3]; ASO 0.20 μM
  AR mRNA levels (% baseline value) after treatment with DHT: 135 % baseline value
  AR mRNA levels (% baseline value) after treatment with R1881: 133 % baseline value
  AR mRNA levels (% baseline value) of cells without AR agonist treatment: 140 % baseline value
AR mRNA [3]; ASO 1.0 μM
  AR mRNA levels (% baseline value) after treatment with DHT: 136 % baseline value
  AR mRNA levels (% baseline value) after treatment with R1881: 124 % baseline value
  AR mRNA levels (% baseline value) of cells without AR agonist treatment: 132 % baseline value
AR mRNA [3]; ASO 5.0 μM
  AR mRNA levels (% baseline value) after treatment with DHT: 100 % baseline value
  AR mRNA levels (% baseline value) after treatment with R1881: 99 % baseline value
  AR mRNA levels (% baseline value) of cells without AR agonist treatment: 98 % baseline value
[4]; ASO 0.04 μM
  PSA mRNA levels (% baseline value) after treatment with DHT: 97 % baseline value
  PSA mRNA levels (% baseline value) after treatment with R1881: 100 % baseline value
  PSA mRNA levels (% baseline value) of cells without AR agonist treatment: 106 % baseline value
[4]; ASO 0.20 μM
  PSA mRNA levels (% baseline value) after treatment with DHT: 86 % baseline value
  PSA mRNA levels (% baseline value) after treatment with R1881: 93 % baseline value
  PSA mRNA levels (% baseline value) of cells without AR agonist treatment: 118 % baseline value
[4]; ASO 1.0 μM
  PSA mRNA levels (% baseline value) after treatment with DHT: 64 % baseline value
  PSA mRNA levels (% baseline value) after treatment with R1881: 80 % baseline value
  PSA mRNA levels (% baseline value) of cells without AR agonist treatment: 58 % baseline value
[4]; ASO 5.0 μM
  PSA mRNA levels (% baseline value) after treatment with DHT: 64 % baseline value
  PSA mRNA levels (% baseline value) after treatment with R1881: 57 % baseline value
  PSA mRNA levels (% baseline value) of cells without AR agonist treatment: 87 % baseline value
TMPRSS2 mRNA; ASO 0.04 μM
  TMPRSS2 mRNA levels (% baseline value) after treatment with DHT: 121 % baseline value
  TMPRSS2 mRNA levels (% baseline value) after treatment with R1881: 136 % baseline value
  TMPRSS2 mRNA levels (% baseline value) of cells without AR agonist treatment: 95 % baseline value
TMPRSS2 mRNA; ASO 0.20 μM
  TMPRSS2 mRNA levels (% baseline value) after treatment with DHT: 118 % baseline value
  TMPRSS2 mRNA levels (% baseline value) after treatment with R1881: 134 % baseline value
  TMPRSS2 mRNA levels (% baseline value) of cells without AR agonist treatment: 117 % baseline value
TMPRSS2 mRNA; ASO 1.0 μM
  TMPRSS2 mRNA levels (% baseline value) after treatment with DHT: 122 % baseline value
  TMPRSS2 mRNA levels (% baseline value) after treatment with R1881: 125 % baseline value
  TMPRSS2 mRNA levels (% baseline value) of cells without AR agonist treatment: 77 % baseline value
TMPRSS2 mRNA; ASO 5.0 μM
  TMPRSS2 mRNA levels (% baseline value) after treatment with DHT: 114 % baseline value
  TMPRSS2 mRNA levels (% baseline value) after treatment with R1881: 122 % baseline value
  TMPRSS2 mRNA levels (% baseline value) of cells without AR agonist treatment: 73 % baseline value
AR mRNA [5]; 0.02 μM
  Percent inhibition of AR mRNA: 0%
AR mRNA [5]; 0.1 μM
  Percent inhibition of AR mRNA: 0%
AR mRNA [5]; 0.5 μM
  Percent inhibition of AR mRNA: 0%
AR mRNA [5]; 10 μM
  Percent inhibition of AR mRNA: 17%
